Test results published in patent publication US9695155B2, “Herbicidal substituted pyrimidinyloxy benzene compounds” (E. I. DU PONT DE NEMOURS AND COMPANY, priority 2013, dated 2017).

Assays:
Test in all cases: Test F preemergence
Settings in all cases: 21 days, scale 0 to 100
kochia = format: in vivo, Kochia scoparia
Excerpt: (§1) Seeds of plant species selected from bermudagrass (Cynodon dactylon), surinam grass (Brachiaria decumbens), large (Lg) crabgrass (Digitaria sanguinalis), crabgrass, naked (naked crabgrass, Digitaria nuda), foxtail, green (green foxtail, Setaria viridis), johnsongrass (Sorghum halepense), kochia (Kochia scoparia), morningglory (pitted morningglory, Ipomoea lacunosa), nutsedge, purple (purple nutsedge, Cyperus rotundus), ragweed (common ragweed, Ambrosia elatior), mustard, black (black mustard, Brassica nigra), guineagrass (Panicum maximum), dallisgrass (Paspalum dilatatum), barnyardgrass (Echinochloa crus-galli), sandbur (southern sandbur, Cenchrus echinatus), sowthistle (common sowthistle, Sonchus oleraceous), Italian ryegrass (Lolium multiflorum), signalgrass (broadleaf signalgrass, Brachiaria platyphylla), dayflower (Virginia (VA) dayflower, Commelina virginica), bluegrass (annual bluegrass, Poa annua), quackgrass (Elytrigia repens), mallow (common mallow, Malva sylvestris), buckwheat, wild (wild buckwheat, Polygonum convolvulus), leafy spurge (Euphorbia esula), chickweed (common chickweed, Stellaria media), wild poinsettia (Euphorbia heterophylla), and pigweed (Amaranthus retroflexus) were planted into a blend of loam soil and sand and treated preemergence with test chemicals formulated in a non-phytotoxic solvent mixture which included a surfactant.
(§2) Treated plants and controls were maintained in a greenhouse for 21 days, after which time all species were compared to controls and visually evaluated. Plant response ratings, summarized in Table F, are based on a scale of 0 to 100 where 0 is no effect and 100 is complete control. A dash (-) response means no test result.

sandbur = format: in vivo, Cenchrus echinatus
Excerpt: as §1, §2

crabgrass, naked = format: in vivo, Digitaria nuda
Excerpt: as §1, §2

ragweed = format: in vivo, Ambrosia elatior
Excerpt: as §1, §2

buckwheat, wild = format: in vivo, Polygonum convolvulus
Excerpt: as §1, §2

Row | Compound | Plant response rating, Kochia (kochia; 16 g ai/ha) | Plant response rating, Kochia (kochia; 31 g ai/ha) | Plant response rating, Kochia (kochia; 62 g ai/ha) | Plant response rating, Kochia (kochia; 125 g ai/ha) | Plant response rating, Kochia (kochia; 250 g ai/ha) | Plant response rating, Sandbur (sandbur; 16 g ai/ha) | Plant response rating, Sandbur (sandbur; 31 g ai/ha) | Plant response rating, Sandbur (sandbur; 62 g ai/ha) | Plant response rating, Sandbur (sandbur; 125 g ai/ha) | Plant response rating, Sandbur (sandbur; 250 g ai/ha) | Plant response rating, Crabgrass, Naked (crabgrass, naked; 16 g ai/ha) | Plant response rating, Crabgrass, Naked (crabgrass, naked; 31 g ai/ha) | Plant response rating, Crabgrass, Naked (crabgrass, naked; 62 g ai/ha) | Plant response rating, Crabgrass, Naked (crabgrass, naked; 125 g ai/ha) | Plant response rating, Crabgrass, Naked (crabgrass, naked; 250 g ai/ha) | Plant response rating, Ragweed (ragweed; 16 g ai/ha) | Plant response rating, Ragweed (ragweed; 31 g ai/ha) | Plant response rating, Ragweed (ragweed; 62 g ai/ha) | Plant response rating, Ragweed (ragweed; 125 g ai/ha) | Plant response rating, Ragweed (ragweed; 250 g ai/ha) | other results
1 | N#Cc1cccc(Oc2ncc(F)cn2)c1-n1cc(C(F)(F)F)cn1 [Compound 79, 3-[(5-fluoro-2-pyrimidinyl)oxy]-2-[4-(trifluoromethyl)-1H-pyrazol-1-yl]benzonitrile] | 100 | 100 | 100 | 100 | 100 | 10 | 15 | 95 | 98 | 100 | 100 | 100 | 100 | 100 | 100 | 25 | 70 | 98 | 100 | 100 | Plant response rating, Buckwheat, Wild (buckwheat, wild; 16 g ai/ha): 98; Plant response rating, Buckwheat, Wild (buckwheat, wild; 31 g ai/ha): 100; Plant response rating, Buckwheat, Wild (buckwheat, wild; 62 g ai/ha): 100; Plant response rating, Buckwheat, Wild (buckwheat, wild; 125 g ai/ha): 100; Plant response rating, Buckwheat, Wild (buckwheat, wild; 250 g ai/ha): 100
2 | N#Cc1cccc(Oc2ncc(Cl)cn2)c1-n1cc(OC(F)F)cn1 [Compound 97] | 100 | 100 | 100 | 100 | 100 | 0 | 10 | 25 | 100 | 100 | 100 | 100 | 100 | 100 | 100 | 10 | 75 | 85 | 95 | 100 | Plant response rating, Buckwheat, Wild (buckwheat, wild; 16 g ai/ha): 85; Plant response rating, Buckwheat, Wild (buckwheat, wild; 31 g ai/ha): 100; Plant response rating, Buckwheat, Wild (buckwheat, wild; 62 g ai/ha): 100; Plant response rating, Buckwheat, Wild (buckwheat, wild; 125 g ai/ha): 100; Plant response rating, Buckwheat, Wild (buckwheat, wild; 250 g ai/ha): 100
